The values below come from patent US10874626B2, “Formulation for use in a method of treatment of pain” (NEVAKAR Inc., priority 2016, dated 2020).

Series [1] has as its system beagle dog whole blood (male), red blood cells. In words: In vitro hemolysis test, dog blood. Particulars: dog whole unclotted blood, concentrations tested, 15 min at 37° C. How it is done:
(§1) APAP and GBP alone or in combination were evaluated in the in vitro hemolysis test using four biologic matrices (mouse, rat, dog and human whole unclotted blood) to determine the hemolytic potential for each on red blood cells.

Series [2] has as its system mouse whole blood (male), red blood cells. Nature of the series: In vitro hemolysis test, mouse blood. To be noted: mouse whole unclotted blood, concentrations tested, 15 min at 37° C. How it is done:
as §1

Series [3] concerns rat whole blood (male), red blood cells. In words: In vitro hemolysis test, rat blood. Particulars: rat whole unclotted blood, concentrations tested, 15 min at 37° C. How it is done:
as §1

In series [4] the test system is human (pooled) whole blood, red blood cells. Nature of the series: In vitro hemolysis test, human blood. To be noted: human whole unclotted blood, concentrations tested, 15 min at 37° C. How it is done: as §1
For a further series, the system named is Male ICR mice. Nature of the series: Mouse RotoRod/Acelerorod test. Particulars: 15 minute IV infusion, 10 mg Acetaminophen/mL, 8 mg Gabapentin/mL, 1, 2, 4, 6 h. How it is done:
Mouse tail flick test was conducted to evaluate test somatic pain and mouse rotorod/acelorod test evaluated behavioral changes, specifically somnolence or dizziness
In each case a positive control was administered as described below.
Male ICR mice were trained on a RotoRod/Acelerod at a continuous accelerating speed from 4 to 30 rpm/min during a time period of 4 minutes for at least 3 times on day 0. Vehicle or test article at a single dose is administered by intravenous infusion over 15 minutes starting 30 minutes before the test period starts and chlorpromazine (30 mg/kg, PO) was administered by oral gavage 60 minutes before the start of the test period. At 1, 2, 4, and 6 hours after the start of the test the mice are placed on the accelerating rotorod (increasing from 4 to 30 rpm/min during a 4 min period) and the time (seconds) the mouse remained on the rotorod was recorded. One-way ANOVA followed by Dunnett's test is applied for comparison between vehicle control and test article groups. P<0.05 is considered significant.
A baseline was measured before administration of the test agents and at 1, 2, 4 and 6 h post the start of the study. The effect of the compounds was evaluated in the standard RotoRod/Acelerorod test.

For series [5] the following is noted: Koshy et al; cited from earlier work.
Series [6] in a line: Stability of GBP in presence of different stabilizers and solvents. The series is classed as physicochemical. To be noted: GBP 9 mg/mL in acetate buffer, PVP 10 mg/mL. How it is done: GBP containing formulations were prepared by dissolving GBP to a concentration of 9 mg/mL in acetate buffer. A first set of samples were tested for assay and impurities after the initial preparation of formulation, Another set of samples were steam sterilized at 121° C. for 15 min and were tested for assay and impurity levels.

For the next series, the system named is Male rats. In words: Toxicologic profile in rats (clinical pathology, necropsy, histopathology). Particulars: 24 h after 15 minute IV infusion, infusion site, lung, liver, kidney.
For series [7] the following is noted: oral; cited from earlier work.

In the case of `CC(=O)Nc1ccc(O)cc1` [Acetaminophen, acetaminophen], the Interpretation of hemolysis result in series [1], in series [2], in [3] and in [4] was “not considered to be hemolytic” in each case. The “motor control (time on rotorod) compared to the vehicle control” value in the series with Male ICR mice is “no statistically significant decrease in motor control”. For the same molecule, the “pH range in which hydrolysis of APAP is minimum” value in [5] was 5-7.

On to “1-(aminomethyl) cyclohexane acetic acid [Gabapentin]”, for which the Interpretation of hemolysis entry in series [1], in [2], in [3] and in series [4] was “not considered to be hemolytic” in each case. Besides, the “stability of GBP with stabilizer” value in series [6] is “more stable”. Further, in the series with Male rats, the “histopathology compared to the vehicle control” value is recorded as “no changes in the histopathology in any tissue sampled”. In addition, in the series with Male ICR mice, the “motor control (time on rotorod) compared to the vehicle control” value is on record as “no statistically significant decrease in motor control”. Besides, the “Plasma concentrations versus dose” value in [7] was “proportional with dose up to 1800 mg daily and then plateau at approximately 3600 mg daily”.
